Experimental data taken from US20140121216A1, “INDOLEAMINE DERIVATIVES FOR THE TREATMENT OF CENTRAL NERVOUS SYSTEM DISEASES” (Adamed Sp. z o.o., priority 2011, published 2014).
Blank lines part the entries; values can stand above or below the molecule they belong to.

Experiments:
[1] = system: α1 adrenergic receptors (rat cerebral cortex); assay: Binding assay, α1 adrenergic receptor ([3H]prazosin); settings: compound 1×10^−6 M
Description: (§1) The specific ligand binding to the receptors is defined as the difference between the total binding and the non-specific binding determined in the presence of an excess of unlabelled ligand.
(§2) The inhibition constants (Ki) were calculated using the Cheng Prusoff equation (Ki=IC50/(1+(L/KD)), where L=concentration of radioligand in the assay, and KD=affinity of the radioligand for the receptor). A Scatchard plot is used to determine the Kd. The IC50 values (concentration causing a half-maximal inhibition of control specific binding) and Hill coefficients (nH) were determined by non-linear regression analysis of the competition curves generated with mean replicate values using Hill equation curve fitting (Y=D+[(A−D)/(1+(C/C50)^nH)], where Y=specific binding, D=minimum specific binding, A=maximum specific binding, C=compound concentration, C50=IC50, and nH=slope factor). This analysis was performed using a software developed at Cerep (Hill software) and validated by comparison with data generated by the commercial software SigmaPlot® 4.0 for Windows® (©1997 by SPSS Inc.).
Experimental conditions for tests are given in Table 7, and results of tests for representative compounds are given in Tables 8a and 8b (α1 receptors) and in Tables 9a and 9b (α2C receptors).

[2] = target: T1, D2S (h), human recombinant (HEK-293 cells) (Homo sapiens, UniProt P14416); assay: Cellular functional assay D2S (h) antagonism; format: cell-based; settings: HEK293; compound 1×10^−6 M; stimulus dopamine 30 nM; read-out: D2-antag [%]
T1 construct: expressed in transfected cells; host or cells: HEK-293 cells
Description: (§3) The results are expressed as a percent of control specific agonist response ((measured specific response/control specific agonist response)×100) obtained in the presence of tested compound.
(§4) The EC50 values (concentration producing a half-maximal specific response) and IC50 values (concentration causing a half-maximal inhibition of the control specific agonist response) were determined by non-linear regression analysis of the concentration-response curves generated with mean replicate values using Hill equation curve fitting (Y=D+[(A−D)/(1+(C/C50)nH)], where Y=specific response, D=minimum specific response, A=maximum specific response, C=compound concentration, and C50=EC50 or IC50, and nH=slope factor).
(§5) For the antagonists, the apparent dissociation constants (Kb) were calculated using the modified Cheng Prusoff equation (Kb=IC50/(1+(A/EC50A)), where A=concentration of reference agonist in the assay, and EC50A=EC50 value of the reference agonist).

[3] = target: T2, 5-HT6 (h), human recombinant (CHO cells) (Homo sapiens, UniProt P50406); assay: Cellular functional assay 5-HT6 (h) agonism; format: cell-based; settings: compound 1×10^−6 M, control 10 μM serotonin, read-out: 5-HT6-ag [%]
T2 construct: expressed in transfected cells; host or cells: CHO cells
Description: as §3, §4, §5

[4] = target: T1, D2S (h), human recombinant (HEK-293 cells); assay: Cellular functional assay D2S (h) agonism; format: cell-based; settings: HEK293; compound 1×10^−6 M; control 3 μM dopamine; read-out: D2-ag [%]
Description: as §3, §4, §5

[5] = target: T2, 5-HT6 (h), human recombinant (CHO cells); assay: Cellular functional assay 5-HT6 (h) antagonism; format: cell-based; settings: compound 1×10^−6 M, stimulus serotonin 100 nM, read-out: 5-HT6-antag [%]
Description: as §3, §4, §5

[6] = target: T3, 5-HT1A receptor (rat hippocampus) (Rattus norvegicus, UniProt P19327); assay: Binding assay, 5-HT1A receptor ([3H]8-OH-DPAT); settings: compound 1×10^−6 M
T3 construct: hippocampus; from tissue; host or cells: rat hippocampus
T3 sequence (P19327 1-422): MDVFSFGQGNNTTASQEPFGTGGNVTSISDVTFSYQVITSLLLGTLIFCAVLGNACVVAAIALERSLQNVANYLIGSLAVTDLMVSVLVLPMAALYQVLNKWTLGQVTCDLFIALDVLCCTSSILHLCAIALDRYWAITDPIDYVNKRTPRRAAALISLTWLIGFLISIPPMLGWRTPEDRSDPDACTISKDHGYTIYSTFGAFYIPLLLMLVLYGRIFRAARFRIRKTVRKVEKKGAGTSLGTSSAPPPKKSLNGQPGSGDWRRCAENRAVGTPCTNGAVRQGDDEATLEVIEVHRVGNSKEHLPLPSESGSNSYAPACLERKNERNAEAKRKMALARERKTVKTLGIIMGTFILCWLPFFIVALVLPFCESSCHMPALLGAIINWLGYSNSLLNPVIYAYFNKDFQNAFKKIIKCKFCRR
Description: (§6) Moreover, ability of the compounds of the invention to block potassium channel hERG was tested.
as §1
as §2, with “factor).” for “factor). This analysis was performed using a software developed at Cerep (Hill software) and validated by comparison with data generated by the commercial software SigmaPlot® 4.0 for Windows® (©1997 by SPSS Inc.).”

[7] = target: T4, 5-HT6 receptor, human recombinant (Homo sapiens, UniProt P50406); assay: Binding assay, 5-HT6 receptor ([3H]LSD); settings: compound 1×10^−6 M
T4 construct: purchased PerkinElmer
Description: as §6, §1
as §2, with “factor).” for “factor). This analysis was performed using a software developed at Cerep (Hill software) and validated by comparison with data generated by the commercial software SigmaPlot® 4.0 for Windows® (©1997 by SPSS Inc.).”

[8] = target: T5, human recombinant D3 receptors (Homo sapiens, UniProt P35462); assay: Binding assay, dopaminergic D3 receptor ([3H]methylspiperone); settings: compound 1×10^−6 M
T5 construct: purchased PerkinElmer
Description: as §6, §1
as §2, with “factor).” for “factor). This analysis was performed using a software developed at Cerep (Hill software) and validated by comparison with data generated by the commercial software SigmaPlot® 4.0 for Windows® (©1997 by SPSS Inc.).”

[9] = target: T6, human recombinant SERT receptor (CHO cells) (Homo sapiens, UniProt P31645); assay: Binding assay, serotonine transporter (SERT) ([3H]imipramine); settings: compound 1×10^−6 M
T6 construct: expressed in transfected cells; host or cells: CHO cells
Description: as §6, §1
as §2, with “factor).” for “factor). This analysis was performed using a software developed at Cerep (Hill software) and validated by comparison with data generated by the commercial software SigmaPlot® 4.0 for Windows® (©1997 by SPSS Inc.).”

[10] = target: 5-HT2A receptor, human recombinant (Homo sapiens, UniProt P28223); assay: Binding assay, 5-HT2A receptor ([3H]ketanserin); design: purchased PerkinElmer; settings: compound 1×10^−6 M
Description: as §6, §1
as §2, with “factor).” for “factor). This analysis was performed using a software developed at Cerep (Hill software) and validated by comparison with data generated by the commercial software SigmaPlot® 4.0 for Windows® (©1997 by SPSS Inc.).”

[11] = target: T7, 5-HT7 receptor, human recombinant (Homo sapiens, UniProt P34969); assay: Binding assay, 5-HT7 receptor ([3H]LSD); settings: compound 1×10^−6 M
T7 construct: purchased PerkinElmer
Description: as §6, §1
as §2, with “factor).” for “factor). This analysis was performed using a software developed at Cerep (Hill software) and validated by comparison with data generated by the commercial software SigmaPlot® 4.0 for Windows® (©1997 by SPSS Inc.).”

[12] = target: T8, D2 receptor, human recombinant (GeneBLAzer D2-Gqo5 CHO-K1 DA) (Homo sapiens, UniProt P14416); assay: Binding assay, dopaminergic D2 receptor ([3H]methylspiperone); settings: compound 1×10^−6 M
T8 construct: purchased Invitrogen; host or cells: CHO-K1 (GeneBLAzer D2-Gqo5 CHO-K1 DA)
Description: as §6, §1
as §2, with “factor).” for “factor). This analysis was performed using a software developed at Cerep (Hill software) and validated by comparison with data generated by the commercial software SigmaPlot® 4.0 for Windows® (©1997 by SPSS Inc.).”

T1 sequence (P14416 1-414 isoform P14416-2): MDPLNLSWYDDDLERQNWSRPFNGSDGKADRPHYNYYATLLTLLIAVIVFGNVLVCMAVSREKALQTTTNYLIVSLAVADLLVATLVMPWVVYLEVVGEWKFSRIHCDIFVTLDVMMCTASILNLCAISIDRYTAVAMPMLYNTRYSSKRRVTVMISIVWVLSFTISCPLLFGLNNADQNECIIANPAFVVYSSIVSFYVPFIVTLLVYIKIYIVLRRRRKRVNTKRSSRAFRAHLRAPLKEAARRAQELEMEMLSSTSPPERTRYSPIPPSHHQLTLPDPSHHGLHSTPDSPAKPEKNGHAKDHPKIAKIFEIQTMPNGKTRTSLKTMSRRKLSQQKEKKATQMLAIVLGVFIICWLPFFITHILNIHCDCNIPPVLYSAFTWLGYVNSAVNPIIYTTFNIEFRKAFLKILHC
T2 sequence (P50406 whole entry): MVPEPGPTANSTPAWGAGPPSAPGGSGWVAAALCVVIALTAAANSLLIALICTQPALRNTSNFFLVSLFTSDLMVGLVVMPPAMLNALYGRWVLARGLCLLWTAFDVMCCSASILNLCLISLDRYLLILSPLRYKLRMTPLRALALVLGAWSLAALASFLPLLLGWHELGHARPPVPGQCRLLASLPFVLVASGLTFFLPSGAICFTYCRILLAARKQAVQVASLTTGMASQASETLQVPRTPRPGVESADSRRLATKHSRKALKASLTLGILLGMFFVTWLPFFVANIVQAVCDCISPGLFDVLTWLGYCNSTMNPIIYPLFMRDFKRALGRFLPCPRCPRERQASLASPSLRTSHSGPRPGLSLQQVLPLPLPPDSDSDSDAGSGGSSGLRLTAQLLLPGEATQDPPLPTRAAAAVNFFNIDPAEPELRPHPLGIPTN
T5 sequence (P35462 whole entry): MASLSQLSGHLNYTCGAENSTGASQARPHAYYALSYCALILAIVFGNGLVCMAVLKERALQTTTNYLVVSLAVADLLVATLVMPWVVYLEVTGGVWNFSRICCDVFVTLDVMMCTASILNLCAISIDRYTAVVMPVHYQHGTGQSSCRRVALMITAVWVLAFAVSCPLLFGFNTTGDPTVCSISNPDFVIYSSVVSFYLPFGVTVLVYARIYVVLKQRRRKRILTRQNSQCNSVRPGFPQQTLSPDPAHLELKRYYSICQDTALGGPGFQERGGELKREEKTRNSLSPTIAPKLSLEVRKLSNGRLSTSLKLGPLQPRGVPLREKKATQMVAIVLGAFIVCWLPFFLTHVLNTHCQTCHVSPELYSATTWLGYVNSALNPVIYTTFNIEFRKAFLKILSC
T7 sequence (P34969 whole entry): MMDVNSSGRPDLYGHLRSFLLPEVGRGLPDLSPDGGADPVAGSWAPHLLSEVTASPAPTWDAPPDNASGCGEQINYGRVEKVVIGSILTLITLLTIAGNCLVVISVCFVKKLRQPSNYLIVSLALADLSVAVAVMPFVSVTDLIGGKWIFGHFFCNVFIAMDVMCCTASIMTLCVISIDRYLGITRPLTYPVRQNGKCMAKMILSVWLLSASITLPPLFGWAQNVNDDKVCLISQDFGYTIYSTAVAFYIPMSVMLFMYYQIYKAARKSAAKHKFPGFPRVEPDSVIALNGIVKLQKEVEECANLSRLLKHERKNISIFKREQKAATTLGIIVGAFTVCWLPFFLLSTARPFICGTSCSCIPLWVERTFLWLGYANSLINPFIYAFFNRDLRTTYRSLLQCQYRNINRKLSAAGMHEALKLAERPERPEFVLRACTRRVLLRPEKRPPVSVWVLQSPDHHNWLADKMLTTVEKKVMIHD
Sequence of 5-HT2A receptor, human recombinant (P28223 whole entry): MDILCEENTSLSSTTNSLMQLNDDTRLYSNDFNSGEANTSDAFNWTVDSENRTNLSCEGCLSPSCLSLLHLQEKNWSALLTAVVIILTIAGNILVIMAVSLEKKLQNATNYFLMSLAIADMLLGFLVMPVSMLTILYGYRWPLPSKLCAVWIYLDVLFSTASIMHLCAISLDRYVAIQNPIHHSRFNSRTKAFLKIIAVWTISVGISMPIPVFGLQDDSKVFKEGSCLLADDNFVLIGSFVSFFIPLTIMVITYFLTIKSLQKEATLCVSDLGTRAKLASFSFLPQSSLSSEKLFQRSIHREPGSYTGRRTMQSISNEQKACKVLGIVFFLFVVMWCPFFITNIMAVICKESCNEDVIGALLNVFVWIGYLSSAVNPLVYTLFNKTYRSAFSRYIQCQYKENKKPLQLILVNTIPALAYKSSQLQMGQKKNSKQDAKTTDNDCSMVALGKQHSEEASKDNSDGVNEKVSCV
T6 sequence (P31645 whole entry): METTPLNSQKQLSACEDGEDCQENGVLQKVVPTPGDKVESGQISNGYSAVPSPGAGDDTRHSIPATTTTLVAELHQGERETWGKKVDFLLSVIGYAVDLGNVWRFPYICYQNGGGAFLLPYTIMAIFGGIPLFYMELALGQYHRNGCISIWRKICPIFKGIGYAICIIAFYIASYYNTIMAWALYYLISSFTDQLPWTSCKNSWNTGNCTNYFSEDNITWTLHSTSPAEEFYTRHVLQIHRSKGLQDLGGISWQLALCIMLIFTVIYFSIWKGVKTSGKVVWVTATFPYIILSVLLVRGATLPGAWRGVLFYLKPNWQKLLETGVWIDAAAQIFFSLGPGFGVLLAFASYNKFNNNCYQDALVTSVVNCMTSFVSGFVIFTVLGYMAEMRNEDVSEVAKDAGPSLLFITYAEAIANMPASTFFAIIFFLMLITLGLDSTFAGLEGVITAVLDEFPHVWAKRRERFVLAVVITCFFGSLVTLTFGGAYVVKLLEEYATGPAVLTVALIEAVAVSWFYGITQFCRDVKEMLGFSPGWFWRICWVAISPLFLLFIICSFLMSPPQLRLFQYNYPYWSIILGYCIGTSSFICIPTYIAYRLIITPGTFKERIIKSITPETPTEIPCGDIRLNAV
T8 sequence (P14416 whole entry): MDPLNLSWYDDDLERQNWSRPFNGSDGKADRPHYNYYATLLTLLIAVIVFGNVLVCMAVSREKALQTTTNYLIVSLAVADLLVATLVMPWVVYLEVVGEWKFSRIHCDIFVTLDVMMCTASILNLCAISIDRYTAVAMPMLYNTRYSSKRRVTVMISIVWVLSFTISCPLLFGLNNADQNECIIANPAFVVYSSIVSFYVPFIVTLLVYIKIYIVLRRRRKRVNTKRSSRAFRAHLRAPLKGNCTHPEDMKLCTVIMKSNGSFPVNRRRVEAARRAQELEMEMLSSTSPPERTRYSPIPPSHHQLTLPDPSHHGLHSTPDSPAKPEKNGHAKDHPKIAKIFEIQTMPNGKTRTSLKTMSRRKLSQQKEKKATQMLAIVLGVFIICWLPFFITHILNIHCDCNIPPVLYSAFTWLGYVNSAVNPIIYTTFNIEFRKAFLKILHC
T4 sequence (P50406 whole entry): as the sequence (P50406 whole entry) above

α1 [%] affinity test result [1]: 25% | inhibition at 1 µM [2]: 75% | activation at 1 µM [3]: -4% | activation at 1 µM [4]: 30% | inhibition at 1 µM [5]: 98%
SMILES: O=S(=O)(c1ccccc1)n1ccc2c(N3CCN(CCCOc4ccc5ccoc5c4)CC3)cccc21 [Compound 25, 4-(4-(3-(Benzofuran-6-yloxy)propyl)piperazin-1-yl)-1-(phenylsulphonyl)-1H-indole]

α1 [%] affinity test result [1]: 93% | inhibition at 1 µM [2]: 68% | activation at 1 µM [3]: 0% | activation at 1 µM [4]: 11% | inhibition at 1 µM [5]: 88%
SMILES: O=S(=O)(c1ccccc1)n1ccc2c(N3CCN(CCCOc4ccc(F)cc4)CC3)cccc21 [Compound 15, 4-(4-(3-(4-Fluorophenoxy)propyl)piperazin-1-yl)-1-(phenylsulphonyl)-1H-indole]

α1 [%] affinity test result [1]: 56%
SMILES: NC(=O)c1ccccc1OCCCN1CCN(c2cccc3c2ccn3Cc2ccccc2)CC1 [Compound 60, 2-[3-[4-(1-Benzylindol-4-yl)piperazin-1-yl]propoxy]benzamide]

α1 [%] affinity test result [1]: 56%
SMILES: NC(=O)c1ccccc1OCCCN1CCN(c2cccc3c2ccn3Cc2cccc(Cl)c2)CC1 [Compound 68, 2-[3-[4-[1-[(3-Chlorophenyl)methyl]indol-4-yl]piperazin-1-yl]propoxy]-benzamide]

α1 [%] affinity test result [1]: 83% | inhibition at 1 µM [2]: 73% | activation at 1 µM [3]: -2% | activation at 1 µM [4]: 11% | inhibition at 1 µM [5]: 73%
SMILES: O=S(=O)(c1ccccc1)n1ccc2c(N3CCN(CCCOc4ccccc4)CC3)cccc21 [Compound 12, 4-(4-(3-Phenoxypropyl)piperazin-1-yl)-1-(phenylsulphonyl)-1H-indole]

α1 [%] affinity test result [1]: 57%
SMILES: NC(=O)c1ccccc1OCCCN1CCN(c2cccc3c2ccn3Cc2cccc(F)c2)CC1 [Compound 64, 2-[3-[4-[1-[(3-Fluorophenyl)methyl]indol-4-yl]piperazin-1-yl]propoxy]-benzamide]

SMILES: CC(C)Oc1ccccc1OCCCN1CCN(c2cccc3c2ccn3S(=O)(=O)c2ccccc2)CC1 [Compound 21, 4-(4-(3-(2-(1-Methylethoxy)phenoxy)propyl)piperazin-1-0)-1-(phenylsulphonyl)-1H-indole]
5-HT1A [%] binding assay result [6]: 91% | 5-HT6 [%] binding assay result [7]: 97% | α1 [%] affinity test result [1]: 83% | D3 [%] binding assay result [8]: 86% | SERT [%] affinity test result [9]: 13% | 5-HT2A [%] binding assay result [10]: 80% | 5-HT7 [%] binding assay result [11]: 78% | D2 [%] binding assay result [12]: 90%

α1 [%] affinity test result [1]: 40%
SMILES: CC(C)Oc1ccccc1OCCCCN1CCN(c2cccc3c2ccn3S(=O)(=O)c2ccccc2)CC1 [Compound 71, 1-(Benzenesulfonyl)-4-[4-[4-(2-isopropoxyphenoxy)butyl]-piperazin-1-yl]indole]

α1 [%] affinity test result [1]: 49%
SMILES: O=S(=O)(c1ccccc1)n1ccc2c(N3CCN(CCCCOc4ccccc4)CC3)cccc21 [Compound 69, 1(Benzenesulfonyl)-4-[4-(4-phenoxybutyl)piperazin-1-yl]indole]

α1 [%] affinity test result [1]: 54%
SMILES: O=S(=O)(c1ccccc1)n1ccc2c(N3CCN(CCCCOc4ccc(F)cc4)CC3)cccc21 [Compound 70, 1-(Benzenesulfonyl)-4-[4-[4-(4-fluorophenoxy)butyl]piperazin-1-yl]-indole]

α1 [%] affinity test result [1]: 50%
SMILES: NC(=O)c1ccccc1OCCCN1CCN(c2cccc3c2ccn3Cc2ccccc2F)CC1 [Compound 62, 2-[3-[4-[1-[(2-Fluorophenyl)methyl]indol-4-yl]piperazin-1-yl]propoxy]-benzamide]

α1 [%] affinity test result [1]: 42%
SMILES: NC(=O)c1ccccc1OCCCN1CCN(c2cccc3c2ccn3Cc2ccc(F)cc2)CC1 [Compound 66, 2-[3-[4-[1-[(4-Fluorophenyl)methyl]indol-4-yl]piperazin-1-yl]propoxy]-benzamide]

SMILES: O=C1CCc2ccc(OCCCCN3CCN(c4cccc5c4ccn5Cc4ccccc4F)CC3)cc2N1 [Compound 61, 7-[4-[4-[1-[(2-Fluorophenyl)methyl]indol-4-yl]piperazin-1-yl]butoxy]-3,4-dihydro-1H-quinolin-2-one]
α1 [%] affinity test result [1]: 13%

SMILES: O=C1CCc2ccc(OCCCCN3CCN(c4cccc5c4ccn5Cc4ccc(F)cc4)CC3)cc2N1 [Compound 65, 7-[4-[4-[1-[(4-Fluorophenyl)methyl]indol-4-yl]piperazin-1-yl]butoxy]-3,4-dihydro-1H-quinolin-2-one]
α1 [%] affinity test result [1]: 59%
